# Reference: patent US20160361311A1, “LIGANDS THAT TARGET HEPATITIS C VIRUS E2 PROTEIN” (AMERICAN UNIVERSITY OF CAIRO, priority 2014, published 2016)
# Legend:
# [1] = tested on: HCVpp 2a; test: HCVpp 2a infection of Huh-7 cells, 96-well (luciferase); type: cell-based, HCV; settings: Hepatitis C virus, Huh-7, 30 h, read-out: IC50 HCVpp
# Procedure: (§1) Pseudotyped retroviral particles harboring HCV envelope proteins (HCVpp) from different genotypes were produced as described previously. A plasmid encoding the feline endogenous virus RD114 glycoprotein [35] was used for the production of RD114pp. Both HCVpp and RD114pp expressed Firefly luciferase.
# (§2) To identify ligands that inhibit HCV infection, Huh-7 cells were seeded in 96-well plates and treated the day after with six different concentrations of each ligand diluted in DMSO in duplicate using a Zephyr automated liquid handling workstation (Caliper BioSciences, Hopkinton, Mass.). The final concentration of DMSO (1%) was adjusted to be the same for all ligand concentrations. Cells treated with DMSO were used as negative controls. Cells treated with different concentrations of anti-CD81 (JS-81 from BD Pharmingen, San Jose, Calif.) 1 hour before infection, were also used as positive controls. The third day, RD114pp, HCVpp or HCVcc were inoculated and incubated for 30 hours at 37° C. Firefly and Gaussia luciferase assays were performed as indicated by the manufacturer (Promega, San Luis Obispo, Calif.).
# (§3) The remaining ligands were next tested against pseudotyped retroviral particles harboring genotype-2a HCV envelope proteins (HCVpp 2a), cell culture produced HCV particles (HCVcc) or RD114pp. As a positive control, an anti-CD81 antibody was used in parallel.
# [2] = tested on: HCVcc; test: HCVcc infection of Huh-7 cells (Gaussia luciferase); type: cell-based, HCV; settings: Hepatitis C virus, Huh-7, 30 h, read-out: IC50 HCVcc
# Procedure: The cell culture-produced HCV particles (HCVcc) used in this study were based on the JFH1 strain [36] and were prepared as described previously. They were engineered to express the A4 epitope, titer-enhancing mutations and Gaussia luciferase.
# as §2, §3
# [3] = tested on: HCVpp 1a; test: HCVpp genotype infection of Huh-7 cells, 24-well; type: cell-based, HCV; settings: Hepatitis C virus
# Procedure: as §1, §2
# (§4) The analysis of the effect of 281816 ligand on Huh-7 infection by HCVpp bearing envelope proteins from different genotypes was performed in 24-well plates using the method described above. This ligand was also screened for toxicity to the hepatocytes using the MTS (3-(4,5-dimethylthiazol-2-yl)-5-(3-carboxymethoxyphenyl)-2-(4-sulfophenyl)-2Htetrazolium) assay.
# (§5) To determine if 281816 would inhibit HCV genotypes other than 2a, a series of infection assays were performed with HCVpp bearing envelope proteins from a number of different HCV genotypes.
# [4] = tested on: HCVpp 1b; test: HCVpp genotype infection of Huh-7 cells, 24-well; type: cell-based, HCV; settings: Hepatitis C virus
# Procedure: as §1, §2, §4, §5
# [5] = tested on: HCVpp 2a; test: HCVpp genotype infection of Huh-7 cells, 24-well; type: cell-based, HCV; settings: Hepatitis C virus
# Procedure: as §1, §2, §4, §5
# [6] = tested on: HCVpp 2b; test: HCVpp genotype infection of Huh-7 cells, 24-well; type: cell-based, HCV; settings: Hepatitis C virus
# Procedure: as §1, §2, §4, §5
# [7] = tested on: HCVpp 6a; test: HCVpp genotype infection of Huh-7 cells, 24-well; type: cell-based, HCV; settings: Hepatitis C virus
# Procedure: as §1, §2, §4, §5
# [8] = MTS viability / hepatocyte toxicity assay; type: cell-based; settings: human
# Procedure: as §4, §3
# [9] = tested on: hepatocytes; test: MTS viability / hepatocyte toxicity assay; type: cell-based; settings: over the concentrations tested in the infection assays, highest 10 μM
# Procedure: as §4, §3
smiles,measurement,setting,value
CSc1ccc2c(c1)C(N1CCN(C)CC1)Cc1ccccc1S2 (stereo not drawn) [Ligand 281816],IC50,[1],1.02 µM
same,IC50,[2],3.95 µM
same,IC50,[3],2.95 µM
same,IC50,[4],4.66 µM
same,IC50,[5],2.22 µM
same,IC50,[6],2.93 µM
same,IC50,[7],3.3 µM
same,CC50,[8],14 µM
same,hepatocyte toxicity,[9],not observed
